Measurements from patent US8673578B2, “Methods of identifying antagonists of the hTAS2R46 bitter taste receptor” (Deutsches Institut für Ernahrungsforschung Potsdam-Rehbrücke, priority 2009, dated 2014).

How the values were obtained:
Format in all cases: cell-based
[1] = biological target: T1, hTAS2R5 (Homo sapiens, UniProt Q9NYW4); assay: calcium imaging (FLIPR), effect on agonist-dependent hTAS2R activation; conditions: 100 μM test substance; agonist denatonium saccharide 3000 μM; agonist alone = 100%
T1 construct: expressed in transfected cells; host or cells: HEK293T cells stably expressing chimeric Gα16gust44, transient transfection
T1 sequence (Q9NYW4 1-299): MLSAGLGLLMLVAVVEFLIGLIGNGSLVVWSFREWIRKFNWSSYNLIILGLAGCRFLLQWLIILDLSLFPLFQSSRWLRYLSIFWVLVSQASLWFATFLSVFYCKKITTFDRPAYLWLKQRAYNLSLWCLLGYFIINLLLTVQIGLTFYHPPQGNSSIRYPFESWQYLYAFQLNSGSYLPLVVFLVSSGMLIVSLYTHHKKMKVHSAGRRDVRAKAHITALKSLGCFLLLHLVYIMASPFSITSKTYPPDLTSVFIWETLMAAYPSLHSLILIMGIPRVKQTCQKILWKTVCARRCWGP
Description: (§1) Human TAS2R cDNAs were cloned into pcDNA5/FRT (Invitrogen, San Diego, Calif.). For adequate plasma membrane targeting, receptor cDNA was fused to the aminoterminal sequence of the rat somatostatin type 3 receptor at the aminoterminus of the recombinant protein (Bufe, B., T. Hofmann, et al. (2002) Nat Genet. 32(3): 397-401). For immunological detection, the Herpes simplex Glycoprotein D epitope was supplemented at the carboxyterminus of the recombinant protein (Bufe et al., supra). Receptor constructs were transiently transfected into HEK293T cells stably expressing the chimeric G protein subunit Gα16gust44 (Ueda, T., S. Ugawa, et al. (2003) J Neurosci 23(19): 7376-80) using Lipofectamine 2000 (Invitrogen, San Diego, Calif.) in 96-well plates.
(§2) Calcium Imaging experiments were performed 24 h after transfection using a Fluorometric Imaging Plate Reader (FLIPR, Molecular Devices, Munich, Germany) as previously described (Bufe et al., supra). Taste active compounds were ordered from Sigma (Sigma-Aldrich, Taufkirchen, Germany). Absinthin, 3β hydroxy dihydro costunolide and 3β hydroxy pelenolide were kindly provided by Giovanni Appendino (Novara, Italy). Test substances were directly dissolved in C1 buffer (130 mM NaCl, 10 mM Na-Hepes, 10 mM Glucose, 5 mM KCl, 2 mM CaCl2, pH 7.4) or in DMSO, respectively. DMSO stocks were further diluted in C1 buffer not exceeding a final DMSO concentration of 1% on the cells. For the investigation of antagonistic effects, test substances were premixed. Agonists were applied at concentrations corresponding to EC90, except where indicated otherwise (Table 2). Data were collected from 3 independent experiments performed in quadruplicates and processed with SigmaPlot (SPSS, Chicago, Ill.). Fluorescence signals after application of test substances were corrected for and normalized to background fluorescence (ΔF/F═(F−F0)/F0), and baseline noise was subtracted. Calculation of dose-response curves was done by nonlinear regression using the function f(y)=((a−d)/(1+(x/EC50)^nH)+d).
(§3) To test 3β hydroxy dihydro costunolide and 3β hydroxy pelenolide for antagonistic or enhancing effects on hTAS2R activation, transfected cells were stimulated with cognate agonist bitter substances at EC90 concentrations (Table 2) without 3β hydroxy dihydro costunolide and 3β hydroxy pelenolide. The cellular responses after application of the agonist alone were set to 100%, responses obtained after coapplication of agonists and 100 μM 3β hydroxy dihydro costunolide or 100 μM 3β hydroxy pelenolide are shown relative to this value (FIG. 4).

[2] = biological target: T2, hTAS2R44 (Homo sapiens, UniProt P59538, L162M); assay: calcium imaging (FLIPR), activation of hTAS2R-transfected HEK293T-Gα16gust44 cells
T2 construct: expressed in transfected cells; host or cells: HEK293T cells stably expressing chimeric Gα16gust44, transient transfection
T2 sequence (P59538 1-309 L162M): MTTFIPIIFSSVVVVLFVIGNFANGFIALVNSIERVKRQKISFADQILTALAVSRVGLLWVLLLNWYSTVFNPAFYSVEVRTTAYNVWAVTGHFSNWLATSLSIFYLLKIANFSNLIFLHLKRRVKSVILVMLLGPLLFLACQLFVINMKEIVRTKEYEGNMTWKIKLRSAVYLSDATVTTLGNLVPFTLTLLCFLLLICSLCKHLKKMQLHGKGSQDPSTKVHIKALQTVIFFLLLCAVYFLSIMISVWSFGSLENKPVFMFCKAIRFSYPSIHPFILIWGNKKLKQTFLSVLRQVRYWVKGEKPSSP
Description: as §1, §2
(§4) In a first series of experiments we tested the two sesquiterpene lactones 3β hydroxy dihydro costunolide (formula (I) in FIG. 1) and 3β hydroxy pelenolide (formula (II) in FIG. 1) for their ability to activate hTAS2 receptor-expressing HEK293T cells.
(§5) Signal amplitudes were comparatively small (FIG. 2C).

[3] = biological target: T3, hTAS2R7 (Homo sapiens, UniProt Q9NYW3); assay: as above; conditions: 100 μM test substance, bath application
T3 construct: expressed in transfected cells; host or cells: HEK293T cells stably expressing chimeric Gα16gust44, transient transfection
T3 sequence (Q9NYW3 1-318): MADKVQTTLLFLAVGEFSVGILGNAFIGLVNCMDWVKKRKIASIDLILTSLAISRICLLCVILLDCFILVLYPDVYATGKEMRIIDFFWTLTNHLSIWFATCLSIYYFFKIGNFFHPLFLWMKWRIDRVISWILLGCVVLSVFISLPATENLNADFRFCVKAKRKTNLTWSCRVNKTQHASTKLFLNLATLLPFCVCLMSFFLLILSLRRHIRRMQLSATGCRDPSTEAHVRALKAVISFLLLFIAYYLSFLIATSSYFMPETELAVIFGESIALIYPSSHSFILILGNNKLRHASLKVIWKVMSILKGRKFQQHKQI
Description: as §1, §2, §4, §5

[4] = biological target: T4, hTAS2R8 (Homo sapiens, UniProt Q9NYW2); assay: as above; conditions: 100 μM test substance, bath application
T4 construct: expressed in transfected cells; host or cells: HEK293T cells stably expressing chimeric Gα16gust44, transient transfection
T4 sequence (Q9NYW2 1-309): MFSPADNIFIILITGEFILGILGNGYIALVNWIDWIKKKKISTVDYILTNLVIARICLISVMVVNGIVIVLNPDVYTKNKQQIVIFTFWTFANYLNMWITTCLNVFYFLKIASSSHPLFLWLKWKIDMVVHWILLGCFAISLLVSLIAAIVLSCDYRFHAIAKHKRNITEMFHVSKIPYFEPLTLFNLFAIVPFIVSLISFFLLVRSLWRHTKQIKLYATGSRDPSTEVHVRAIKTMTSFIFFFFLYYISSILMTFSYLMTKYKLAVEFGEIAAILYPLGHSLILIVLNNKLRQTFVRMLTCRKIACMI
Description: as §1, §2, §4, §5

[5] = biological target: T2, hTAS2R44; assay: calcium imaging (FLIPR), effect on agonist-dependent hTAS2R activation; conditions: 100 μM test substance; agonist aristolochic acids 3 μM (EC90); agonist alone = 100%
Description: as §1, §2, §3

For `C/C1=C\C[C@H](O)/C(C)=C/[C@H]2OC(=O)[C@@H](C)C2CC1` (stereo partly drawn) [3β hydroxy dihydro costunolide], the “agonist-dependent response of hTAS2R5-expressing cells on coapplication” value [1] was “increased responses”, the “calcium response of hTAS2R44-transfected cells” value ([2]; 100 μM test substance, bath application) was “responded” and the EC50 ([2]; concentration-response, intracellular calcium) was 31.5 ± 7.4 µM. For the same compound, the “calcium response of hTAS2R7-transfected cells” value [3] was “responded” and the “calcium response of hTAS2R8-transfected cells” value [4] was “responded”.
In the case of `C/C1=C\C[C@H](O)[C@@H](C)C[C@H]2OC(=O)[C@@H](C)[C@@H]2CC1` [3β hydroxy pelenolide], the “agonist-dependent response of hTAS2R44-expressing cells on coapplication” value [5] is reported as “moderately attenuating effect”.
